The text below walks through data of ChEMBL document CHEMBL5696442, “Discovery of type II inhibitors of TGFβ-activated kinase 1 (TAK1) and mitogen-activated protein kinase kinase kinase kinase 2 (MAP4K2)” (J Med Chem, 2015).

Active and inactive are the calls of the source. The calls are words filed in the database; no cut-off is given here.

The target of assay [1] is Calcium/calmodulin-dependent protein kinase type II subunit gamma (Homo sapiens) (UniProt Q13555). Put plainly: Inhibition of CaMK2g Lys1 labeling site harbouring TSTQEYAAKIINTK in human Huh-7 cells at 1 uM by KiNativ Profiling analysis relative to control. Type of assay: cell-based.
Assay [2] concerns the target T1, Serine/threonine-protein kinase D2 (Homo sapiens) (UniProt Q9BZL6).
T1 sequence (whole entry): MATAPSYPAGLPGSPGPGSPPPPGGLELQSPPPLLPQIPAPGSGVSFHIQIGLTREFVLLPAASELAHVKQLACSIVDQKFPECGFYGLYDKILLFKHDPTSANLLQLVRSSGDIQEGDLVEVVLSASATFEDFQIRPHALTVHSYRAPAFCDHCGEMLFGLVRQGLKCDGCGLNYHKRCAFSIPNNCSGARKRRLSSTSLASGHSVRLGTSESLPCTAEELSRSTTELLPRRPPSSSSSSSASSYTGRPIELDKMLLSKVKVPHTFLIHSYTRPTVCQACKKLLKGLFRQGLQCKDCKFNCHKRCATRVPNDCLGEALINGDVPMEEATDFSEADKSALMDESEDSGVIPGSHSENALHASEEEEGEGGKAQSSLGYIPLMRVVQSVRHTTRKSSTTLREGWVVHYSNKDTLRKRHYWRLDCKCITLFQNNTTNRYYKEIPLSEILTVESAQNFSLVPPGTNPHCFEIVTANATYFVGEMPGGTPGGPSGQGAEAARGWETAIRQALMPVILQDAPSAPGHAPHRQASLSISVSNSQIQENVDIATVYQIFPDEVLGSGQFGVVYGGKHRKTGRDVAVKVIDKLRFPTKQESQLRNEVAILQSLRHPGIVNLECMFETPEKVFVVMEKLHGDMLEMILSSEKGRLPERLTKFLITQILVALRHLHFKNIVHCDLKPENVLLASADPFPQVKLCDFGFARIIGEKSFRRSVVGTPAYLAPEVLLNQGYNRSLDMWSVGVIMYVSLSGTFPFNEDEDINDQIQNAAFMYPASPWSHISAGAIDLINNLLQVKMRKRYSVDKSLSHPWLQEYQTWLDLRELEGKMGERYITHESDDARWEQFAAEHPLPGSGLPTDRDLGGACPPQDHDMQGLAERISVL
Put plainly: Inhibition of PKD2 Lys2 labeling site in human Huh-7 cells at 1 uM by KiNativ Profiling analysis relative to control. The assay is classed as cell-based.

Assay [3] deals with 5'-AMP-activated protein kinase catalytic subunit alpha-1 (Homo sapiens) (UniProt Q13131). Briefly: Inhibition of AMPKa1 ATP labeling site in human Huh-7 cell lysate at 1 uM by KiNativ Profiling analysis relative to control. Type of assay: subcellular.
Assay [4] deals with Casein kinase I isoform alpha (Homo sapiens) (UniProt P48729). Put plainly: Inhibition of CK1a Lys2 labeling site in human Huh-7 cells at 1 uM by KiNativ Profiling analysis relative to control. The assay is classed as cell-based.
Assay [5] deals with Cyclin-dependent kinase 18 (Homo sapiens) (UniProt Q07002). Briefly: Inhibition of PCTAIRE3 Lys1 labeling site in human Huh-7 cells at 1 uM by KiNativ Profiling analysis relative to control. Type of assay: cell-based.
Assay [6] concerns the target MAP/microtubule affinity-regulating kinase 3 (Homo sapiens) (UniProt P27448). Briefly: Inhibition of MARK3 Lys2 labeling site in human Huh-7 cell lysate at 1 uM by KiNativ Profiling analysis relative to control. Type of assay: subcellular.
For assay [7], the target named is Rho-associated protein kinase 1 (Homo sapiens) (UniProt Q13464). Briefly: Inhibition of ROCK1 Lys2 labeling site in human Huh-7 cells at 1 uM by KiNativ Profiling analysis relative to control. Type of assay: cell-based.
The target in assay [8] is Cyclin-dependent kinase 5 (Homo sapiens) (UniProt Q00535). Briefly: Inhibition of CDK5 Lys2 labeling site harbouring NVLHRDLKPQNLLINR in human Huh-7 cells at 1 uM by KiNativ Profiling analysis relative to control. The assay is classed as cell-based.
Assay [9] in a line: Inhibition of CASK Lys1 labeling site in human Huh-7 cells at 1 uM by KiNativ Profiling analysis relative to control.
The target of assay [10] is Cyclin-dependent kinase 5 (Homo sapiens) (UniProt Q00535). Put plainly: Inhibition of CDK5 Lys2 labeling site harbouring DLKPQNLLINR in human Huh-7 cell lysate at 1 uM by KiNativ Profiling analysis relative to control. Type of assay: subcellular.
Assay [11] deals with Putative phosphatidylinositol 4-kinase alpha-like protein P2 (Homo sapiens) (UniProt A4QPH2). Put plainly: Inhibition of PI4KAP2 ATP labeling site in human A-375 cells at 0.05 uM by KiNativ Profiling analysis relative to control. The assay is classed as cell-based.
For assay [12], the target named is Serine/threonine-protein kinase 38 (Homo sapiens) (UniProt Q15208). Briefly: Inhibition of NDR1 Lys1 labeling site in human A-375 cells at 0.05 uM by KiNativ Profiling analysis relative to control. Type of assay: cell-based.
In assay [13] the target is Phosphatidylinositol 4-phosphate 5-kinase type-1 gamma (Homo sapiens) (UniProt O60331). Briefly: Inhibition of PIP5K1C (unknown origin) at 1 uM by Ambit Kinomescan binding assay relative to control; values are per cent of control.
Assay [14] deals with Non-receptor tyrosine-protein kinase TYK2 (Homo sapiens) (UniProt P29597). Put plainly: Inhibition of TYK2 domain2 ACT labeling site in human A-375 cells at 0.05 uM by KiNativ Profiling analysis relative to control. Type of assay: cell-based.
In assay [15] the target is Casein kinase I isoform gamma-1 (Homo sapiens) (UniProt Q9HCP0). Put plainly: Inhibition of CSNK1G1 (unknown origin) at 10 uM by Ambit Kinomescan binding assay.
For assay [16], the target named is Interferon-induced, double-stranded RNA-activated protein kinase (Homo sapiens) (UniProt P19525). Briefly: Inhibition of PKR K2 labeling site in human Huh-7 cells at 10 uM by KiNativ Profiling analysis relative to control. The assay is classed as cell-based.
Assay [17] has as its target Microtubule-associated serine/threonine-protein kinase 1 (Homo sapiens) (UniProt Q9Y2H9). Briefly: Inhibition of MAST1 Lys2 labeling site in human A-375 cells at 0.5 uM by KiNativ Profiling analysis relative to control.
Assay [18] concerns the target Mitogen-activated protein kinase 7 (Homo sapiens) (UniProt Q13164). Put plainly: Inhibition of Erk5 K2 labeling site in human Huh-7 cells at 1 uM by KiNativ Profiling analysis relative to control. The assay is classed as cell-based.
The target in assay [19] is Calcium/calmodulin-dependent protein kinase type II subunit delta (Homo sapiens) (UniProt Q13557). Briefly: Inhibition of CAMK2d K1 labeling site in human Huh-7 cells at 10 uM by KiNativ Profiling analysis relative to control. The assay is classed as cell-based.
For assay [20], the target named is Myosin-IIIb (Homo sapiens) (UniProt Q8WXR4). Briefly: Inhibition of MYO3B (unknown origin) at 10 uM by Ambit Kinomescan binding assay relative to control.
Sequence of Myosin-IIIb (Homo sapiens) (Q8WXR4 whole entry): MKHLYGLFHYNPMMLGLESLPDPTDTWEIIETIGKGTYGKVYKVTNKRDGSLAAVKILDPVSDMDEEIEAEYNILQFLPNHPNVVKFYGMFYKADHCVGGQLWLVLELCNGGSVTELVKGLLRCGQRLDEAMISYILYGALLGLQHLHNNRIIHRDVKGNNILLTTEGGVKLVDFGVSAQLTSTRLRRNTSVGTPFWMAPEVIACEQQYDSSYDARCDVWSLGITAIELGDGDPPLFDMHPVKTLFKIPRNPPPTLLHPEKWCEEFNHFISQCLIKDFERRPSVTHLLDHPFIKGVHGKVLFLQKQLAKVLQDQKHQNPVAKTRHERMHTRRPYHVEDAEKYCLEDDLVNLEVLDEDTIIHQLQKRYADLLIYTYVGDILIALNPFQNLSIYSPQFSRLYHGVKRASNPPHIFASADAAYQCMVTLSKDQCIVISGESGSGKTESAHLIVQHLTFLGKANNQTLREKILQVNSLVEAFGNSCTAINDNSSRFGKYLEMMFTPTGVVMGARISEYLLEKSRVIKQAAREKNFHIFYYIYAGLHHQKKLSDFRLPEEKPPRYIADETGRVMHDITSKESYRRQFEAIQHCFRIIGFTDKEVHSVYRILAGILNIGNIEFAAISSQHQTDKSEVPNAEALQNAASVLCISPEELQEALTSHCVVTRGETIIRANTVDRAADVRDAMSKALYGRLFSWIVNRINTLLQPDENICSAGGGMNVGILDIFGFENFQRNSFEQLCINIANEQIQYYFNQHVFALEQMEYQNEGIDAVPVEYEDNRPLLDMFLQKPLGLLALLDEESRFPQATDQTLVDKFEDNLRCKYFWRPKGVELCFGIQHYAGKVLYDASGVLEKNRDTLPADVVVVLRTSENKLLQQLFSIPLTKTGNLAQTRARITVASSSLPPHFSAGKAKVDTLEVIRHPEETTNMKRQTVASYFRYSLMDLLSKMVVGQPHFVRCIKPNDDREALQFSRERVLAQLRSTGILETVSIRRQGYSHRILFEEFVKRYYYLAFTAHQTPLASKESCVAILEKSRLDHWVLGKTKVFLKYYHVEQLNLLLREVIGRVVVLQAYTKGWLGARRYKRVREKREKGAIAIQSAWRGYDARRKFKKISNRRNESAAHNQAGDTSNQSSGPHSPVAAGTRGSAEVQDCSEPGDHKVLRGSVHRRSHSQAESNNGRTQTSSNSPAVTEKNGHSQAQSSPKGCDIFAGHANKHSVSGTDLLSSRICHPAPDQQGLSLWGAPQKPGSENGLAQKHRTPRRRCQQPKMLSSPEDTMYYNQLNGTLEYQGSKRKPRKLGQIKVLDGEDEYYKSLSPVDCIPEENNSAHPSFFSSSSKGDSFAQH

Sequence of Cyclin-dependent kinase 5 (Homo sapiens) (Q00535 whole entry, looked up): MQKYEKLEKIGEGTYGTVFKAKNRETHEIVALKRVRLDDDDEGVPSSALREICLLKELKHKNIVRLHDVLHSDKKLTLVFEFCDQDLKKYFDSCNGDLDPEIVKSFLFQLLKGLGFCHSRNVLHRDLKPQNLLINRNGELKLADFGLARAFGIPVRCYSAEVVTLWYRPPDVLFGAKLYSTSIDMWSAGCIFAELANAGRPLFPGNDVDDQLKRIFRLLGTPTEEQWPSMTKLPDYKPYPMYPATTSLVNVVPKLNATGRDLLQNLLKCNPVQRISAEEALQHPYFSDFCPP
Sequence of Cyclin-dependent kinase 18 (Homo sapiens) (Q07002 whole entry): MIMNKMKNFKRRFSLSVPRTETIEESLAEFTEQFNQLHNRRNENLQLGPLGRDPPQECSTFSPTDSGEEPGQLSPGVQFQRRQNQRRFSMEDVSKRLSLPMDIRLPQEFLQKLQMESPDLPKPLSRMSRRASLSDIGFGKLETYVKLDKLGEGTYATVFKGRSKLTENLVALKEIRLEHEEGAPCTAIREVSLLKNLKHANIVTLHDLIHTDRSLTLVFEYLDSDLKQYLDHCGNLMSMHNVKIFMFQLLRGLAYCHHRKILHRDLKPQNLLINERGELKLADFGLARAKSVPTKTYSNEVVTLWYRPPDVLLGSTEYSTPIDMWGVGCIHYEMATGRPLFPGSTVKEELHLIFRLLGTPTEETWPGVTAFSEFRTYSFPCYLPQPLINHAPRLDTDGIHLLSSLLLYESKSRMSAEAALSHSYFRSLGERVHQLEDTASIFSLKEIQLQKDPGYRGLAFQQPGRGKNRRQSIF
Sequence of Rho-associated protein kinase 1 (Homo sapiens) (Q13464 2-1354 limits assumed): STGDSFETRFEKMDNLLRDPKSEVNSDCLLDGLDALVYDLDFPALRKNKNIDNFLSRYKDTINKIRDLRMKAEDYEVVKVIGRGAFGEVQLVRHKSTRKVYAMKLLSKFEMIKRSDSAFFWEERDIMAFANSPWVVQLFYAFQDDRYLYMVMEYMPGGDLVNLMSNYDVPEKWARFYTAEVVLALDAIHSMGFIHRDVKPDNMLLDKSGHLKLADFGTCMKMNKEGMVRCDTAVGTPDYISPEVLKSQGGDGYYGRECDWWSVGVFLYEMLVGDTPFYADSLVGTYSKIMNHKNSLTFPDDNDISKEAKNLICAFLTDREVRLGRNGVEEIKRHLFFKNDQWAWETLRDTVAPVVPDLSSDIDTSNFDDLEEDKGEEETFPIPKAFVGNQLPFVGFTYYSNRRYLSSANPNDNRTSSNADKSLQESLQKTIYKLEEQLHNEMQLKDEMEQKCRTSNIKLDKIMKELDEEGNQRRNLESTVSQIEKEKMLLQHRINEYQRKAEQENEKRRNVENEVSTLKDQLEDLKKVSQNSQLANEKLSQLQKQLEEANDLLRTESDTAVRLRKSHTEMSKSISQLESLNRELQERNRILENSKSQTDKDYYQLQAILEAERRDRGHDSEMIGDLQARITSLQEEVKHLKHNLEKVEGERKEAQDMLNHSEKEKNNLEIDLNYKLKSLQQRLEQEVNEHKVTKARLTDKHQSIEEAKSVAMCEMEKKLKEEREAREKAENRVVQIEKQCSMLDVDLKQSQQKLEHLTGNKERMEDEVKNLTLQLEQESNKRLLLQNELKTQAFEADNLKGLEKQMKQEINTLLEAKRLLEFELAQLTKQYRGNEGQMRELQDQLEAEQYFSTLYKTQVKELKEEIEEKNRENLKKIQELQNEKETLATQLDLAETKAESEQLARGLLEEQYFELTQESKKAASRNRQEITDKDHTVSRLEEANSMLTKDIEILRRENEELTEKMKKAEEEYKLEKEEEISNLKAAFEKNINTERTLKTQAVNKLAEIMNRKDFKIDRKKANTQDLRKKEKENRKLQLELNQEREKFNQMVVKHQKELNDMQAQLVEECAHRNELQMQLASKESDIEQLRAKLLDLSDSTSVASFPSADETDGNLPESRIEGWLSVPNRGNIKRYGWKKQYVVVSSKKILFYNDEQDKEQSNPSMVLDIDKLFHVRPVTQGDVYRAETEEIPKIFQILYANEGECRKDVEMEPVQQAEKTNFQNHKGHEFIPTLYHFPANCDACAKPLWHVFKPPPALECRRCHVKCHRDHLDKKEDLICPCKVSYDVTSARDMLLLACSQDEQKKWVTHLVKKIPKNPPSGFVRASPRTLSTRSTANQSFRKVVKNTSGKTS
Sequence of Casein kinase I isoform alpha (Homo sapiens) (P48729 2-337 limits assumed): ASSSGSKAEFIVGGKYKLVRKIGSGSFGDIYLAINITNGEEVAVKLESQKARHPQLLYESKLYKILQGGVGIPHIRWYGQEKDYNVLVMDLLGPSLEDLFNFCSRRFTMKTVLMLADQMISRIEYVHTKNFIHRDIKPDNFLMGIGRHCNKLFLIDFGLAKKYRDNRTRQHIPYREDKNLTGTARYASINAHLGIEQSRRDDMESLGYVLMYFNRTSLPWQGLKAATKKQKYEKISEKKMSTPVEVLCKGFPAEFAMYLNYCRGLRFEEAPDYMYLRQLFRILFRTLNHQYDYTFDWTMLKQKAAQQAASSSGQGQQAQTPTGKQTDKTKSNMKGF
Sequence of Serine/threonine-protein kinase 38 (Homo sapiens) (Q15208 2-465 limits assumed): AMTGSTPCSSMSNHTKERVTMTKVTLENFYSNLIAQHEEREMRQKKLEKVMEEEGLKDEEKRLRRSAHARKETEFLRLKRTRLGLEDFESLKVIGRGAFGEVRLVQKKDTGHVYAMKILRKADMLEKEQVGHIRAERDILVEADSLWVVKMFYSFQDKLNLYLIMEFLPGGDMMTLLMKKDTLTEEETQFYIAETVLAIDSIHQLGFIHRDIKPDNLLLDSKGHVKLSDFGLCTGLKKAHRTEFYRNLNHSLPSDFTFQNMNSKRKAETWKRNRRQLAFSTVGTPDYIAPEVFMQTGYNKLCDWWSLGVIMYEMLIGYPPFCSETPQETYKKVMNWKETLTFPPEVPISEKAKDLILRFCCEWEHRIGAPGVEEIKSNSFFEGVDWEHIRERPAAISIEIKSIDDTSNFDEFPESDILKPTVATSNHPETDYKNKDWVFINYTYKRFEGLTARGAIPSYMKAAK
Sequence of Calcium/calmodulin-dependent protein kinase type II subunit gamma (Homo sapiens) (Q13555 whole entry): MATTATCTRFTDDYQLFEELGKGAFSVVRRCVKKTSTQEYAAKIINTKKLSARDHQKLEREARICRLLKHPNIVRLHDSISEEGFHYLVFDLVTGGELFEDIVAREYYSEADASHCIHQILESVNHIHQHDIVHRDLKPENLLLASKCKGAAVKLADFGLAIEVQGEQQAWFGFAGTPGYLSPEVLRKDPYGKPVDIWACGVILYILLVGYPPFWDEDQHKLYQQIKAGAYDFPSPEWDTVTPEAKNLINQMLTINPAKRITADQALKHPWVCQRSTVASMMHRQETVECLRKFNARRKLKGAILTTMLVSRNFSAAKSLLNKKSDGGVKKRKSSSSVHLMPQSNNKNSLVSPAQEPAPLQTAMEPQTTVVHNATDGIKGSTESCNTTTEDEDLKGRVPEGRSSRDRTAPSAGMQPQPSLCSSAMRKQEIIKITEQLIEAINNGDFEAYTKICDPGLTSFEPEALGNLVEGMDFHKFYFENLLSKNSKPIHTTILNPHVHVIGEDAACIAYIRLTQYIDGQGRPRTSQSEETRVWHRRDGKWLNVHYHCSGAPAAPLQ

For orientation: inhibition means the relative decrease from the control value, in per cent. `CNc1cc(Oc2cc(C(=O)Nc3cc(N4CCN(C)CC4)cc(C(F)(F)F)c3)ccc2C)ncn1`: the inhibition in assay [1] is 27.1%; in assay [2], 9%; in assay [3], 11.2%; in assay [4], -1.9%; in assay [5] it was 12%; in assay [6] it was -4.1%. For the same compound, the inhibition is -1% in assay [7], 1.1% in assay [8], 16% in assay [9] and 2.6% in assay [10].

As for `CCN1CCN(Cc2ccc(NC(=O)c3ccc(C)c(/C=C/c4cnc5[nH]ccc5c4OC)c3)cc2C(F)(F)F)CC1`, the results for the inhibition in [11] and in assay [12] were 0.8% and 3.2%, respectively. Further, the percent of control in [13] stood at 100%.

With `CCN1CCN(Cc2ccc(NC(=O)c3ccc(C)c(Oc4ccnc5[nH]ccc45)c3)cc2C(F)(F)F)CC1`, the inhibition in assay [14] is -4.4%; in [16], 7.9%; in assay [17], 16.1%; in assay [18], 14.6%; in assay [19] it was 0.1%; in [20], 4.8%. Besides, in [15], the inhibition entry is “inactive”.
